# System: rats that suffer from neuropathic pain (chronic constriction injury of sciatic nerve)
# Assay: Mechanical hyperalgesia (mechanical withdrawal threshold, Von Frey) in rats with neuropathic pain (CCI)
# Type: in vivo, rat
# Procedure: Male SD rats, 220-250 g were provided by the Department of Experimental Animals from the Medical College of Nanchang University. The rats were divided into five groups at random and 12 rats were included in each group. Experimental grouping: I (sham); II (puerarin); III (chronic constriction injuries, CCI); IV (CCI+puerarin); V (control); VI (CCI+Indo). The puerarin injection was dissolved in physiological saline and the concentration was 50 mg/mL. […]
# Thiopental sodium was used to anesthetize the rats (30 mg/kg, intraperitoneal injection), and the skin in the outer side of right thighs of the rats was cut open under sterile conditions, and blunt dissection was carried out to isolate the sciatic nerves, then the sciatic nerves were slightly ligated with 4-0 chromicized catgut and four ligations were carried out in total, and an interval of about 1 mm was left between two knots. […] The rats were raised in separate cages after the operation, and mechanical withdrawal threshold and thermal withdrawal latency were determined before the operation (0 d) and 1, 3, 5, 7, 9, 11, 14 days after the operations respectively (Time for the determination is set at 10[…]00-14[…]100 everyday, and the room temperature was maintained at 22±0.5° C.). […]
smiles,measurement,setting,value
O=c1c(-c2ccc(O)cc2)coc2c([C@@H]3O[C@H](CO)[C@@H](O)[C@H](O)[C@H]3O)c(O)ccc12 [puerarin],mechanical withdrawal threshold (MWT) in comparison with group III (CCI),"CCI rats + puerarin, seven days after ligation, p<0.01",significantly increased
same,"mechanical withdrawal threshold, difference among sham, puerarin alone and control","puerarin alone, no CCI, p>0.05",not significant
